According to patent US7462630B2, “Diarylalkene derivatives and novel diarylalkane derivatives” (Ajinomoto Co., Inc., priority 2001, dated 2008):

Key:
[1] = target: T1, L-type calcium channel (Rattus norvegicus, UniProt P22002); experiment: Antagonistic activity on L-type calcium channel (relaxation response against KCl-induced contraction of isolated rat thoracic aorta); conditions: read-out: Antagonistic action on L-type calcium channels pIC50 (converted)
T1 construct: relaxation response against the KCl-induced contraction of isolated rat thoracic aorta was employed; from tissue; host or cells: endothelium-denuded thoracic aorta rings of Wistar rat
Method: The antagonistic activity of the new diarylalkene derivatives and diarylalkane derivatives of the present invention to inhibit L-type calcium channel was determined by the following method in which the relaxation response against the KCl-induced contraction of isolated rat thoracic aorta was employed.
The slips of thoracic aorta isolated from a Wistar rat were used. The aorta was cut to obtain ring-shaped samples having a width of about 3 mm. The endothelial cells of the samples were mechanically removed. The samples were suspended in a strain gage in Tyrode's solution (158.3 mM of NaCl, 4.0 mM of KCl, 1.05 mM of MgCl2, 0.42 mM of NaH2PO4, 10 mM of NaHCO3, 2 mM of CaCl2 and 5 mM of glucose) in which a gaseous mixture of O2 (95%) and CO2 (5%) was introduced. A static tension of 2 g was applied thereto. The tension of the blood vessel was amplified with a transducer and a tension amplifier (EF-601G; Nihon Koden Corporation) and recorded with a multi-pen recorder (Rikadenki Kogyo Co., Ltd.). The experiments were conducted at 37° C.
After the tension had been stabilized, the nutrient solution in the sample tank was replaced with High K^+ Tyrode's solution (112.3 mM of NaCl, 50 mM of KCl, 1.05 mM of MgCl2, 0.42 mM of NaH2PO4, 10 mM of NaHCO3, 2 mM of CaCl2 and 5 mM of glucose) to conduct the contraction reaction. Thirty minutes after, the solution in the sample tank was replaced with the normal Tyrode's solution. The solution in the sample tank was again replaced with the High K^+ Tyrode's solution and the contraction reaction was observed. After attaining the maximum contraction reaction, the test compound was cumulatively added at intervals of 90 minutes to attain concentrations of 10^−9, 10^−8, 10^−7 and 10^−6 M. The inhibitory rate of the test compound against the maximum contraction response was employed as the index of the antagonistic activity on L-type calcium channels.
The value of pIC50 indicates the antagonistic activity of the test compound, i. e. the negative logarithm of the concentration of the test compound necessitated for the 50% inhibition.

[2] = system: Sprague-Dawley (SD) rats, formalin-induced flinching; experiment: Analgesic effects in the formalin test; type: in vivo, rat
Method: Four test groups each composed of 7 male Sprague-Dawley: SD rats (9 weeks old) were used for the experiment. In the control group, 0.5% tragacanth solution was given to the rats. In other test groups, 0.3, 3 or 30 mg/kg of the compound obtained in Example 11 (compound A) was given to them. Compound A was used in the form of a suspension thereof in 0.5% tragacanth solution.
Five ml/kg of 0.5% tragacanth solution or compound A was orally administered to the rats. Three hours after, the rats were tranquilized with halothane, and 2.5% formalin solution (100 μl) was injected subcutaneously to dorsal surface of the left hindpaw. Immediately thereafter, the rats were awaken from the anesthesia. […] The number of times of retracting action, i.e., flinching action of the hindpaw in which formalin had been injected, was counted for 1 minute at an interval of one minute until 5 minutes after the formalin injection, and for 1 minute at an interval of 5 minutes from 10 to 60 minutes after the injection. As reported in a literature (J. Pharmacol. Exp. Ther. 263: 136-146, 1992), the pain reaction by the stimulation with formalin appeared in two phases. The total number of times of the flinching action observed 10 to 60 minutes after the formalin injection (the second phase) was taken as the index of the pain action.
The experiment was conducted in the same manner as that in above Test Example 3 except for the followings.
Five test groups each composed of 6 male Sprague-Dawley (SD) rats (9 weeks old) were used for the experiment. In the control group, polyethylene glycol 400 was given to the rats. In the other test groups, 3, 30, 100 or 300 mg/kg of the compound obtained in Example 71 (compound B) was given to them. Compound B was used in the form of a solution thereof in polyethylene glycol 400 (PEG).
Three ml/kg of PEG or compound B was orally administered to the rats.

T1 sequence (P22002 whole entry): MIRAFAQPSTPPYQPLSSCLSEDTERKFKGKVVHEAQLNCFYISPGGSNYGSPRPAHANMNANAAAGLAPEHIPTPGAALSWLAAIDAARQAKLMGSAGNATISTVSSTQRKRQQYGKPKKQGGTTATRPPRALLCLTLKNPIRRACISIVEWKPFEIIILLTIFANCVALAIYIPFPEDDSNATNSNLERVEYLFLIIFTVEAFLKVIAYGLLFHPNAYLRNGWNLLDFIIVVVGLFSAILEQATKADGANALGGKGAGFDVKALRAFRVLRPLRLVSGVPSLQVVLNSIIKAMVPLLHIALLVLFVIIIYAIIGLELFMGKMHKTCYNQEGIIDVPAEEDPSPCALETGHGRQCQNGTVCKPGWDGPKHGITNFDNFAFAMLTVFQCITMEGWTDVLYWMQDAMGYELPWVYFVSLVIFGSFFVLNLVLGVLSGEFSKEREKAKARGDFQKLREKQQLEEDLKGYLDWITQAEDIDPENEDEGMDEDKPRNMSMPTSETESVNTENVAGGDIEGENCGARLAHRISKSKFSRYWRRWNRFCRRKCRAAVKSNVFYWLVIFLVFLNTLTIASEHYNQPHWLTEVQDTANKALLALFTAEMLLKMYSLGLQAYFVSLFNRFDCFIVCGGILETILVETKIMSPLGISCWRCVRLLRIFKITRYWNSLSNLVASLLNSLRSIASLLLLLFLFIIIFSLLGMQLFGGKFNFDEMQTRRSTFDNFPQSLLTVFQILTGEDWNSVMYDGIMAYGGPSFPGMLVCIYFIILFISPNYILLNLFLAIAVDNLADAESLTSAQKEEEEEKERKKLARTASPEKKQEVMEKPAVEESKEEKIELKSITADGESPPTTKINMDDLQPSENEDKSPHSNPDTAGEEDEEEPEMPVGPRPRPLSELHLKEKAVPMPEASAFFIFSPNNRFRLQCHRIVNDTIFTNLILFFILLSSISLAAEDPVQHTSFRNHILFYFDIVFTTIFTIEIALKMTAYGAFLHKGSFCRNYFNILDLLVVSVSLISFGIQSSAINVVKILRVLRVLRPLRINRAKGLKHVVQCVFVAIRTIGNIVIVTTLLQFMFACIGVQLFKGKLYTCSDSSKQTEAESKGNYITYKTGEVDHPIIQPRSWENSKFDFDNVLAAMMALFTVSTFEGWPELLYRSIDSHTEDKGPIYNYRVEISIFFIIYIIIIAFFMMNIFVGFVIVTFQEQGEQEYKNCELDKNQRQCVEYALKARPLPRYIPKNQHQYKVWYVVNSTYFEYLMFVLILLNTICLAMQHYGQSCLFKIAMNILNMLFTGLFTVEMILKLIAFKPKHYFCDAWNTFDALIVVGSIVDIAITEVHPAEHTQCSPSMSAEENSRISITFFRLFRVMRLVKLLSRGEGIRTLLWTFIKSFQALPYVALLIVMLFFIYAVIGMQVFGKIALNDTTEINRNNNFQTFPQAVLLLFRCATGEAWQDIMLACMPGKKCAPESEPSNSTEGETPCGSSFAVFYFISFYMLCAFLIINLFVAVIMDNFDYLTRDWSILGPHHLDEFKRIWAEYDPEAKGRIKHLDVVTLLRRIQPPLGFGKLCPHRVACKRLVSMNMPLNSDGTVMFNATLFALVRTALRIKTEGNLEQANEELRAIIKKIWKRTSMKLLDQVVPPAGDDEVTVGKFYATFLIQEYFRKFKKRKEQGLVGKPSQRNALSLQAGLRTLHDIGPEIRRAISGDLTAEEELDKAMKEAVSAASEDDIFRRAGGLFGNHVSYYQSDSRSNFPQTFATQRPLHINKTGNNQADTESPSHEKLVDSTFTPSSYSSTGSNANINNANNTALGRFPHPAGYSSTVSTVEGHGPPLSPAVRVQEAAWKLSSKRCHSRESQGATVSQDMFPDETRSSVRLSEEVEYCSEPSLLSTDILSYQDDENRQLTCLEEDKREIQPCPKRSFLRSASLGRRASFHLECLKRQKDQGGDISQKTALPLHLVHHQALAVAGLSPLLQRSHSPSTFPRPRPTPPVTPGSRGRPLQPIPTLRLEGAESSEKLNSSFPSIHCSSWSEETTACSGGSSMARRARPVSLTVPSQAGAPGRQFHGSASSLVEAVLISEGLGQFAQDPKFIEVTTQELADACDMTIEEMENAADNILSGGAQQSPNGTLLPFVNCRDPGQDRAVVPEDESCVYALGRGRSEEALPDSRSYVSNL
T1 sequence (P54287 whole entry partner): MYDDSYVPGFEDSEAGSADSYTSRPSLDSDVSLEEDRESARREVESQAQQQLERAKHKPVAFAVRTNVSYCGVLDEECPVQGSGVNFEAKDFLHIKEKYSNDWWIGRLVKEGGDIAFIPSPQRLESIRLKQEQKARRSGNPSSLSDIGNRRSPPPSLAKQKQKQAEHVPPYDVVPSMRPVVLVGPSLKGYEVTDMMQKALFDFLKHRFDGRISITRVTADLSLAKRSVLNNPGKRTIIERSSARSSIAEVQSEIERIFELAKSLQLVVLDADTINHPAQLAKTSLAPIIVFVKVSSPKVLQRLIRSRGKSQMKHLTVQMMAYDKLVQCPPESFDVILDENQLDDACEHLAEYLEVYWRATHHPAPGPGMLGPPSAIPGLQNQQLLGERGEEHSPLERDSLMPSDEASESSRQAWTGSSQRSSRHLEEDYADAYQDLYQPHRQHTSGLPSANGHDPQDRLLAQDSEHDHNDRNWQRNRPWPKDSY
T1 sequence (P54290 25-944 partner limits assumed): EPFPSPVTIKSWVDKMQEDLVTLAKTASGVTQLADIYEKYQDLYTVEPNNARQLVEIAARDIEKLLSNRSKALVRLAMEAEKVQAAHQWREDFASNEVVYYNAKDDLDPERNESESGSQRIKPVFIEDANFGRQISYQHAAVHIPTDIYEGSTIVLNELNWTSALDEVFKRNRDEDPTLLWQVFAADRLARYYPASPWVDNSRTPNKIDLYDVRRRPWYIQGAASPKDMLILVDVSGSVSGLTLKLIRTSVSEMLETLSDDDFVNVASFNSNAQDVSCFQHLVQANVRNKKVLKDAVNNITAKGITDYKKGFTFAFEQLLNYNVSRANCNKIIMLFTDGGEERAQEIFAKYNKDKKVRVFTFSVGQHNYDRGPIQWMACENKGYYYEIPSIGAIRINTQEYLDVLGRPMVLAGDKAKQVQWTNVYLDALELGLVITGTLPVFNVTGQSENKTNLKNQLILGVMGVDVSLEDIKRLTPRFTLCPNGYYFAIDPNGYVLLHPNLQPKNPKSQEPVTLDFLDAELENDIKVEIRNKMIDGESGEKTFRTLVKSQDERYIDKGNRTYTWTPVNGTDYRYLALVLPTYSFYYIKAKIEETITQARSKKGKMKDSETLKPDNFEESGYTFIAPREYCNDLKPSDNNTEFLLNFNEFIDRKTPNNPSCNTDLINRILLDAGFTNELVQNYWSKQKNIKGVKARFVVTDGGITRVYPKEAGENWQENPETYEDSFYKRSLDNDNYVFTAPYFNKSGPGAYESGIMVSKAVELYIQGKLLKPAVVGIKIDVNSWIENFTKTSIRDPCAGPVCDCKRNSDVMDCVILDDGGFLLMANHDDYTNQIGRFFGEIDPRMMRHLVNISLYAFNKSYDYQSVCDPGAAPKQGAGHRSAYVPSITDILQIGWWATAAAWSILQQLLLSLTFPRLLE
T1 sequence (P54290 945-1091 partner limits assumed): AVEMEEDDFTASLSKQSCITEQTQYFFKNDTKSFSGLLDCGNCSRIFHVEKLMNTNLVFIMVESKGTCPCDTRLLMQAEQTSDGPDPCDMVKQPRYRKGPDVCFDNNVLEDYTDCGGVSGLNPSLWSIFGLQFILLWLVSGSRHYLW

IC50 [1]	SMILES	inhibiting ratio of flinches (second phase, 10 to 60 min) based on control group ([2]; 3 mg/kg oral, solution in polyethylene glycol 400)	inhibiting ratio of flinches (second phase, 10 to 60 min) based on control group ([2]; 30 mg/kg oral, solution in polyethylene glycol 400)	inhibiting ratio of flinches (second phase, 10 to 60 min) based on control group ([2]; 100 mg/kg oral, solution in polyethylene glycol 400)	inhibiting ratio of flinches (second phase, 10 to 60 min) based on control group ([2]; 300 mg/kg oral, solution in polyethylene glycol 400)	inhibiting ratio of flinches (second phase, 10 to 60 min) based on control group ([2]; 0.3 mg/kg oral, suspension in 0.5% tragacanth, 3 hours before formalin)	inhibiting ratio of flinches (second phase, 10 to 60 min) based on control group ([2]; 3 mg/kg oral, suspension in 0.5% tragacanth, 3 hours before formalin)	inhibiting ratio of flinches (second phase, 10 to 60 min) based on control group ([2]; 30 mg/kg oral, suspension in 0.5% tragacanth, 3 hours before formalin)
1.26 µM	CC(C)(C)C(=O)N[C@H](CO)CCC(=O)N1CCC(=C2c3ccccc3C=Cc3ccccc32)CC1 [Example 71, (S)-N-[4-[4-(5H-dibenzo[a,d][7]annulen-5-ylidene)-1-piperidinyl]-1-(hydroxylmethyl)-4-oxobutyl]-2.2-dimethylpropanamide]	11%	33%	53%	59%			
0.398 µM	CC(C)(C)C(=O)NCCC(=O)N1CCC(=C2c3ccccc3C=Cc3ccccc32)CC1 [Example 11, N-{3-[4-(5H-dibenzo[a,d][7]annulen-5-ylidene)-1-piperidinyl]-3-oxopropyl}-2,2-dimethylpropanamide]					10%	42%	37%
